Patent US20260138961A1, “MODULATORS OF MITOCHONDRIAL DNA REPLICATION” (Pretzel Therapeutics, Inc., priority 2022, published 2026)

target: T1, POLγA:G848S (Homo sapiens, UniProt P54098, G848S); assay: DNA polymerization assay, POLγA:G848S mutant; format: biochemical; conditions: stimulation of polymerase activity, primed M13mp18 ssDNA, 37° C. 2 hours; read-out: G848S AC50
T1 sequence (P54098 1-1239 G848S): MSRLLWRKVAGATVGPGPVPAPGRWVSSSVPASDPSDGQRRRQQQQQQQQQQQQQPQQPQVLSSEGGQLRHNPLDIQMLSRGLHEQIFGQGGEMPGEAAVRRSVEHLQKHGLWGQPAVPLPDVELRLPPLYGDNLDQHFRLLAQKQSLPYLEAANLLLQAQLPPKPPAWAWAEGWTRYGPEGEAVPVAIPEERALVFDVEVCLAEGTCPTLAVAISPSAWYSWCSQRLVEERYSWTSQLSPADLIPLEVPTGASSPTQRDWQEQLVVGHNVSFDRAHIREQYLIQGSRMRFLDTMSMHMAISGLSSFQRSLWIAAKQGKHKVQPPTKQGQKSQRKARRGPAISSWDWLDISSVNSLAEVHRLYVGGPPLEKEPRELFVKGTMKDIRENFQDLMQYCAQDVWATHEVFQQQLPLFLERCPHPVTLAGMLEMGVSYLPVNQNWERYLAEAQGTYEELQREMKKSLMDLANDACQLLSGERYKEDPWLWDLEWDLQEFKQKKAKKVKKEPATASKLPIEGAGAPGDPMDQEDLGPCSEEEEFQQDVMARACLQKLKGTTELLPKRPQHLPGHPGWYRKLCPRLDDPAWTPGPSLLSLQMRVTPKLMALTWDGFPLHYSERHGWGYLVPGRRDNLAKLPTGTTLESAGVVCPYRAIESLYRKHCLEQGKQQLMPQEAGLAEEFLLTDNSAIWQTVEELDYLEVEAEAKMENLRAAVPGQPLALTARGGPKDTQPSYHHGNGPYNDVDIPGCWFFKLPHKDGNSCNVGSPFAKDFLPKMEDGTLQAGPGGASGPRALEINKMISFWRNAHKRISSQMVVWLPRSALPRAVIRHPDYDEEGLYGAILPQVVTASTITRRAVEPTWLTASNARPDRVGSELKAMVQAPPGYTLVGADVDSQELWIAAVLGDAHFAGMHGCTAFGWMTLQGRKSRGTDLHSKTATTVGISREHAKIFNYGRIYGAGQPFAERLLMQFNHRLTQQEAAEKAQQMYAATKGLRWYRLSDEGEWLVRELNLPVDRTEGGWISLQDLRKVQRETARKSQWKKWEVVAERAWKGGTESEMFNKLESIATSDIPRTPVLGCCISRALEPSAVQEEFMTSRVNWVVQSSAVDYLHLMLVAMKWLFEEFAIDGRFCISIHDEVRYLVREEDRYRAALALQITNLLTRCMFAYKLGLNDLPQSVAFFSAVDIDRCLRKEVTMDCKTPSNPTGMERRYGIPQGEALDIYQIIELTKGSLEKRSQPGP
T1 sequence (Q9UHN1 1-485 partner): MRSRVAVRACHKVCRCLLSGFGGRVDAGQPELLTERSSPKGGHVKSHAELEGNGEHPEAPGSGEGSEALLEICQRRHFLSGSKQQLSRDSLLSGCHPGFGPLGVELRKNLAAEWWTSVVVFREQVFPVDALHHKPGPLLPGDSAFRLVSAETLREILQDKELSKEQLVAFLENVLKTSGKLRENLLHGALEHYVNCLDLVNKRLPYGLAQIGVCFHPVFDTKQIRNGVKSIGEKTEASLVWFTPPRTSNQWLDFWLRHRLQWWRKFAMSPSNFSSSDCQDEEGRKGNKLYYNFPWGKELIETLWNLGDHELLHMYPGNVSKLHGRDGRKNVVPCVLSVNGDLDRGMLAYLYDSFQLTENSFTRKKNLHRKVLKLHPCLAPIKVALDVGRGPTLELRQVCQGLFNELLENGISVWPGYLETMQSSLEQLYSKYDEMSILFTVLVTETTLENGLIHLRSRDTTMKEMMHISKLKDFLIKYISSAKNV
Description: DNA Polymerization Assay to Monitor Effects on Human Wildtype POLγ and Four Disease-Causing Mutant Variants of Human POLγ.
The ability of small molecules to stimulate the polymerase activity of POLγ was analyzed in a quantitative fluorescence SYBR Green I assay with fluorescence intensity (FI) readout.
In the presence of dNTPs, wild type human POLγ and mutant derivatives thereof were incubated with single-stranded, circular M13mp18 ssDNA hybridized to a short DNA oligonucleotide that functions as a primer for initiation of DNA synthesis. POLγ and mutant derivatives thereof will extend the primer and use the M13mp18 molecule as a template to synthesize long stretches of double-stranded DNA. SYBR Green I, which is a double-stranded DNA-binding dye, was used to quantify formation of double-stranded DNA in the reaction. When bound to double-stranded DNA, SYBR Green I fluorescence increases by up to 100-fold.
The assay was performed in the 384-well plate format. Upon addition of compounds, changes in double-stranded DNA synthesis activity can be monitored by following effects on fluorescent intensity.
The reactions also contained the accessory POLγB subunit, and the human mitochondrial single-stranded DNA binding protein (mtSSB).
The DNA template mixture used in the assay contained 0.5 nM primed M13 mp18 ssDNA, 400 nM mtSSB, 0.1 mM Tris-HCl (pH 8.0), 0.1 mM dNTP, 10 mM MgCl2, 0.1 mg/mL BSA, 1 mM TCEP solution, and 0.02% Triton X-100. The DNA template mixture for the wild type protein contained either 100 μM dNTP, 1 μM dNTP, or 0.1 μM dNTP, designated in Table 2 as 100 μM, 1 μM, and 0.1 μM, respectfully.
Microplates with compounds (0.1 μL in each well) to be tested in the assay were prepared from 10 mM compound stocks in 100% DMSO, and equal amounts of DMSO without any compound were added to positive and negative control wells.
The protein mixture was dispensed (5 μL into each well) into compound plates and incubated at 37° C. for 15 minutes. After incubation, 5 μL of the DNA template mixture was dispensed into each well. The plates were then incubated at 37° C. for 2 hours.
During incubation, a combined stop buffer and detection reagent solution was prepared. The buffer contained 25 mM EDTA (pH 8.0), 0.02% Triton X-100, and SYBR Green I [Invitrogen] diluted 10,000× (for fluorescent readout). EDTA will stop the enzymatic reaction by chelating magnesium ions.

AC50 [µM]	Compound
> 100	O=S(=O)(Nc1csc(-c2ccccc2)n1)c1ccccc1 [Example 147, N-(2-phenylthiazol-4-yl)benzenesulfonamide]
2	Cc1ccc(S(=O)(=O)Nc2csc(-c3ccccc3)n2)c(C)c1 [Example 123, 2,4-dimethyl-N-(2-phenylthiazol-4-yl)benzenesulfonamide]
50	Cc1cc(S(=O)(=O)Nc2cccc(C(=O)N3CCc4ncnc(C)c4C3)c2)c(C)cc1Cl [Example 114, 4-chloro-2,5-dimethyl-N-(3-(4-methyl-5,6,7,8-tetrahydropyrido [4,3-d]pyrimidine-6-carbonyl)phenyl)benzenesulfonamide]
15	Cc1cc(S(=O)(=O)Nc2ccc3c(c2)CC(=O)N3)c(C)cc1Cl [Example 185, 4-chloro-2,5-dimethyl-N-(2-oxoindolin-5-yl)benzenesulfonamide]
> 100	Cc1cc(S(=O)(=O)Nc2cccc(C(=O)N3C[C@@H](F)C[C@H](F)C3)c2)c(C)cc1Cl [Example 115, 4-chloro-N-(3-((3S,5S)-3,5-difluoropiperidine-1-carbonyl)phenyl)-2,5-dimethylbenzenesulfonamide]
> 100	O=S(=O)(Nc1csc(-c2ccccc2)n1)c1cccc2nccnc12 [Example 128, N-(2-phenylthiazol-4-yl)quinoxaline-5-sulfonamide]
9	Cc1cc(Cl)ccc1S(=O)(=O)Nc1cccc(C(=O)N2CCC[C@H]2C)c1 [Example 116, (R)-4-chloro-2-methyl-N-(3-(2-methylpyrrolidine-1-carbonyl)phenyl)benzenesulfonamide]
> 100	Cc1cnc(-c2cc(NS(=O)(=O)c3cc(C)c(Cl)cc3C)ccc2Cl)s1 [Example 111, 4-chloro-N-(4-chloro-3-(5-methylthiazol-2-yl)phenyl)-2,5-dimethylbenzenesulfonamide]
> 100	Cc1cc(S(=O)(=O)N[C@H]2CCCN(C(=O)N3CCCC3)C2)c(C)cc1Cl [Example 130, (S)-4-chloro-2,5-dimethyl-N-(1-(pyrrolidinee-1-carbonyl)piperidin-3-yl)benzenesulfonamide]
> 100	Cc1cc(S(=O)(=O)Nc2nc(-c3ccccc3)no2)c(C)cc1Cl [Example 143, 4-chloro-2,5-dimethyl-N-(3-phenyl-1,2,4-oxadiazol-5-yl)benzenesulfonamide]
> 100	O=S(=O)(Nc1csc(-c2ccccc2)n1)c1ccc(Cl)cc1 [Example 120, 4-chloro-N-(2-phenylthiazol-4-yl)benzenesulfonamide]
40	Cc1cc(S(=O)(=O)Nc2cccc(C(=O)N(C(C)C)C3COC3)c2)c(C)cc1Cl [Example 112, 3-((4-chloro-2,5-dimethylphenyl)sulfonamido)-N-isopropyl-N-(oxetan-3-yl)benzamide]
> 100	Cc1cc(NS(=O)(=O)c2cc(C)c(Cl)cc2C)cc(-c2ncc(C)s2)c1 [Example 110, 4-chloro-2,5-dimethyl-N-(3-methyl-5-(5-methylthiazol-2-yl)phenyl)benzenesulfonamide]
2	Cc1cc(S(=O)(=O)Nc2csc(-c3ccccc3)n2)c(Cl)cc1F [Example 136, 2-chloro-4-fluoro-5-methyl-N-(2-phenylthiazol-4-yl)benzenesulfonamide]
2	Cc1cc(F)ccc1S(=O)(=O)Nc1csc(-c2ccccc2)n1 [Example 124, 4-fluoro-2-methyl-N-(2-phenylthiazol-4-yl)benzenesulfonamide]

The next lines start with the compound.

Compound	AC50 [µM]
Cc1cnc(-c2cc(NS(=O)(=O)c3cc(C)c(Cl)cc3C)ccc2C)s1 [Example 103, 4-chloro-2,5-dimethyl-N-(4-methyl-3-(5-methylthiazol-2-yl)phenyl)benzenesulfonamide]	9
Cc1ccc(C)c(S(=O)(=O)Nc2cccc(C(=O)N3CCCCC3)c2)c1 [Example 3, 2,5-dimethyl-N-(3-(piperidine-1-carbonyl)phenyl)benzene sulfonamide]	31
Cc1cc(S(=O)(=O)Nc2cccc(-c3nccs3)c2)c(C)cc1Cl [Example 16, 4-chloro-2,5-dimethyl-N-(3-(thiazol-2-yl)phenyl)benzenesulfonamide]	2
Cc1nc2c(NS(=O)(=O)c3cc(C)c(Cl)cc3C)cccc2s1 [Example 99, 4-chloro-2,5-dimethyl-N-(2-methylbenzo[d]thiazol-4-yl)benzenesulfonamide]	> 100
Cc1ccc(C)c(S(=O)(=O)Nc2cccc(C(=O)N3CCCC[C@@H]3C)c2)c1 [Example 6, (S)-2,5-dimethyl-N-(3-(2-methylpiperidine-1-carbonyl)phenyl)benzenesulfonamide]	30
(R)-2,5-dimethyl-N-(3-(3-methylmorpholine-4-carbonyl)phenyl)benzenesulfonamide [Example 1]	18
Cc1cc(S(=O)(=O)Nc2cccc(C(=O)N3CCCOC(C)(C)C3)c2)c(C)cc1Cl [Example 106, 4-chloro-N-(3-(2,2-dimethyl-1,4-oxazepane-4-carbonyl)phenyl)-2,5-dimethylbenzenesulfonamide]	> 100
Cc1cc(S(=O)(=O)Nc2cccc(-c3ncc(C(N)=O)s3)c2)c(C)cc1Cl [Example 92, 2-(3-((4-chloro-2,5-dimethylphenyl)sulfonamido)phenyl) thiazole-5-carboxamide]	1
Cc1cc(S(=O)(=O)Nc2cccc(-c3ncc(C(=O)N(C)C)s3)c2)c(C)cc1Cl [Example 94, 2-(3-((4-chloro-2,5-dimethylphenyl)sulfonamido)phenyl)-N,N-dimethylthiazole-5-carboxamide]	> 100
Cc1ccc(C)c(S(=O)(=O)Nc2cccc(C(=O)NCC3CC3)c2)c1 [Example 4, N-(cyclopropylmethyl)-3-((2,5-dimethylphenyl)sulfonamido)benzamide]	33
Cc1cc(S(=O)(=O)Nc2cccc(-c3ncco3)c2)c(C)cc1Cl [Example 17, 4-chloro-2,5-dimethyl-N-(3-(oxazol-2-yl)phenyl)benzenesulfonamide]	6
